Results on 1 molecule are retold here after BindingDB's records for doi:10.1016/j.bmc.2009.10.004 (Kinki University, 2010).

For the test, the target named is Beta-secretase 1 (Homo sapiens, UniProt P56817). Put plainly: Competitive inhibition of human recombinant BACE1 by Lineweaver-Burke plot analysis.

The term Ki denotes the dissociation constant of the complex between target and ligand, obtained from inhibition or displacement.

Chain of Beta-secretase 1 (P56817 whole entry): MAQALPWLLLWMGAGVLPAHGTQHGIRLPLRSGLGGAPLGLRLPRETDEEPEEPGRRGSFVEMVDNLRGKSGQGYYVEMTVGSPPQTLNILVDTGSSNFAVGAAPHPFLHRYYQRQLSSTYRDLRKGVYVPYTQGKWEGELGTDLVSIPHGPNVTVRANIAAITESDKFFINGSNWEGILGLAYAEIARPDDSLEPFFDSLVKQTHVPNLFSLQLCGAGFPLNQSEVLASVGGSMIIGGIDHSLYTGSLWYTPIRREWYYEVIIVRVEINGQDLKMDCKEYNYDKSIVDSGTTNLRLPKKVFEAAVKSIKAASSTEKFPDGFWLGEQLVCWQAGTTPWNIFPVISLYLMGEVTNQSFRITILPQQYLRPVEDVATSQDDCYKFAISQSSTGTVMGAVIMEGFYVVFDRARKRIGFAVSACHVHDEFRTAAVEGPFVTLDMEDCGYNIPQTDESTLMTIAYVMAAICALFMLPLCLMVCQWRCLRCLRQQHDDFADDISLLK

As for `COC(=O)CCc1c(O)cc2occc2c1OCC=C(C)C` [6,7-Furano-5-prenyloxy hydrocoumaric acid methyl ester], the Ki came out at 11.3 µM.
